In patent US8987195B2 (priority 2012, dated 2015) one finds IC50 and EC50 data, which are given here for 5 compounds.

The target in test [1] is HCV NS3/4A protease genotype 1b (Hepatitis C virus genotype 1b, UniProt P26663). The experiment in a line: HCV NS3/4A protease time-resolved fluorescence (TRF) assay, Ki against genotype 1b. It is filed as biochemical. The following applies: IC50 [gt-1b], NS3/4A protease TRF assay, genotype 1b enzyme 0.2 nM. Put shortly:
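First, protease (genotype 1b 0.2 nM, A156T 0.4 nM, genotype 3a 0.025 nM) is preincubated 30 min with inhibitor. Next, 25 nM TRF substrate starts the reaction, run 2.5 h at room temperature. Finally, europium fluorescence is read and Ki calculated from IC50.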

A further test concerns HCV genotype 1b replicon. The experiment in a line: HCV replicon assay, genotype 1b replicon EC50. The test is classed as cell-based, Hepatitis C virus. The following applies: Hepatitis C virus, HCV replicon, genotype 1b, read-out: EC50 [gt-1b]. Put shortly:
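Replicon cells (Neo^r, some luciferase:Neo^r fusion); G418 removed at plating; compound dilution series, 24-48 h. Readout: RNA by 32P-probe hybridization/protection or TaqMan, normalized to cyclophilin A RNA, or luciferase. EC50 vs DMSO control, 4-parameter fit.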
(Replicon systems follow genome replication, usually without infectious particles.)

What is called IC50 is the concentration that gives 50% inhibition. By EC50 is commonly meant the midpoint of the concentration-response curve.

Like-named read-outs stand apart in the source and are kept apart here.

Turning to `COc1ccc2nc(C3CC3)c3c(c2c1)[C@H](F)C[C@]1(C[C@H]2C(=O)N[C@]4(C(=O)NS(=O)(=O)C5(C)CC5)C[C@H]4/C=C\CCCCC[C@H](NC(=O)OCC(C)(C)C)C(=O)N2C1)O3` [Example 455, 2,2-dimethylpropyl [(1′R,2S,6S,12Z,13aS,14aR,16aS)-5′-cyclopropyl-1′-fluoro-9′-methoxy-14a-{[(1-methylcyclopropyl)sulfonyl]carbamoyl}-5,16-dioxo-1,1′,2′,5,6,7,8,9,10,11,13a,14,14a,15,16,16a-hexadecahydrospiro[cyclopropa[e]pyrrolo[1,2-a][1,4]diazacyclopentadecine-2,3′-pyrano[2,3-c]quinolin]-6-yl]carbamate], in test [1] (K+ salt), the IC50 is 0.04 nM. For the same compound, the EC50 with HCV genotype 1b replicon (K+ salt) stood at 1.55 nM.

Turning to `COc1ccc2nc(C3CC3)c3c(c2c1)[C@H](F)C[C@]1(C[C@H]2C(=O)N[C@]4(C(=O)NS(=O)(=O)C5(C)CC5)C[C@H]4/C=C\CCCCC[C@H](NC(=O)OC(C)C)C(=O)N2C1)O3` [Example 456, propan-2-yl [(1′R,2S,6S,12Z,13aS,14aR,16aS)-5′-cyclopropyl-1′-fluoro-9′-methoxy-14a-{[(1-methylcyclopropyl)sulfonyl]carbamoyl}-5,16-dioxo-1,1′,2′,5,6,7,8,9,10,11,13a,14,14a,15,16,16a-hexadecahydrospiro[cyclopropa[e]pyrrolo[1,2-a][1,4]diazacyclopentadecine-2,3′-pyrano[2,3-c]quinolin]-6-yl]carbamate], in test [1] (K+ salt), the half-inhibitory concentration (IC50) was determined as 0.021 nM. For the same compound, the EC50 in the test with HCV genotype 1b replicon (K+ salt) amounted to 1.41 nM.

For `COc1ccc2nc(C3CC3)c3c(c2c1)[C@H](F)C[C@]1(C[C@H]2C(=O)N[C@]4(C(=O)NS(=O)(=O)C5(C)CC5)C[C@H]4/C=C\CCCCC[C@H](NC(=O)O[C@H](C)C(C)C)C(=O)N2C1)O3` [Example 457, (2R)-3-methylbutan-2-yl [(1′R,2S,6S,12Z,13aS,14aR,16aS)-5′-cyclopropyl-1′-fluoro-9′-methoxy-14a-{[(1-methylcyclopropyl)sulfonyl]carbamoyl}-5,16-dioxo-1,1′,2′,5,6,7,8,9,10,11,13a,14,14a,15,16,16a-hexadecahydrospiro[cyclopropa[e]pyrrolo[1,2-a][1,4]diazacyclopentadecine-2,3′-pyrano[2,3-c]quinolin]-6-yl]carbamate], the 50% inhibitory concentration (IC50) in test [1] (K+ salt) amounted to 0.068 nM. For the same compound, the EC50 in the test with HCV genotype 1b replicon (K+ salt) was 1.17 nM.

For the compound `CC(C)(C)OC(=O)N[C@H]1CCCCC/C=C\[C@@H]2C[C@@]2(C(=O)NS(=O)(=O)C2(C)CC2)NC(=O)[C@@H]2C[C@]3(CCc4c(c(C(F)(F)F)nc5ccc(OCF)cc45)O3)CN2C1=O` [Example 458, tert-butyl [(2R,6S,12Z,13aS,14aR,16aS)-9′-(fluoromethoxy)-14a-{[(1-methylcyclopropyl)sulfonyl]carbamoyl}-5,16-dioxo-5′-(trifluoromethyl)-1,1′,2′,5,6,7,8,9,10,11,13a,14,14a,15,16,16a-hexadecahydrospiro[cyclopropa[e]pyrrolo[1,2-a][1,4]diazacyclopentadecine-2,3′-pyrano[2,3-c]quinolin]-6-yl]carbamate], in test [1], inhibition was half-maximal at 0.015 nM (IC50). Also, in the test on HCV genotype 1b replicon, the EC50 is 1.43 nM.

Regarding `COc1ccc2nc(C(F)(F)F)c3c(c2c1)[C@H](F)C[C@]1(C[C@H]2C(=O)N[C@]4(C(=O)NS(=O)(=O)C5(C)CC5)C[C@H]4/C=C\CCCCC[C@H](NC(=O)OCC(C)(C)C)C(=O)N2C1)O3` [Example 462, 2,2-dimethylpropyl [(1′R,2S,6S,12Z,13aS,14aR,16aS)-1′-fluoro-9′-methoxy-14a-{[(1-methylcyclopropyl)sulfonyl]carbamoyl}-5,16-dioxo-5′-(trifluoromethyl)-1,1′,2′,5,6,7,8,9,10,11,13a,14,14a,15,16,16a-hexadecahydrospiro[cyclopropa[e]pyrrolo[1,2-a][1,4]diazacyclopentadecine-2,3′-pyrano[2,3-c]quinolin]-6-yl]carbamate], the midpoint of inhibition in test [1], the IC50, lay at 0.036 nM. For the same compound, the EC50 in the test with HCV genotype 1b replicon was found to be 5.75 nM.
